From ChEMBL document CHEMBL1687842, “Different genetic elements carrying the tet(W) gene in two human clinical isolates of Streptococcus suis” (2011) come the findings set out here.

As usually defined, the MIC is the lowest concentration found to suppress growth. High values mean a need for much substance, low ones inhibition by little substance.

What all share (assay type): functional
The test system of assay [1] is Streptococcus pyogenes. Description: Ratio of MIC for Streptococcus pyogenes 12RF transconjugant harboring ermB and tetW gene from Streptococcus suis UD to wild type Streptococcus suis UD.
For assay [2], the system named is Streptococcus suis. As to the kind of experiment: Antimicrobial activity against Streptococcus suis CA isolated from cerebrospinal fluid of patient with meningitis by broth microdilution method.
In assay [3] the test system is Streptococcus suis. Description: Antimicrobial activity against Streptococcus suis UD isolated from cerebrospinal fluid of patient with meningitis by broth microdilution method.

In brackets after ≈: the same amount, converted by molar mass. Bounds are passed on as bounds.

With `NC[C@H]1O[C@H](O[C@H]2[C@H](O)[C@@H](O[C@H]3O[C@H](CO)[C@@H](O)[C@H](N)[C@H]3O)[C@H](N)C[C@@H]2N)[C@H](O)[C@@H](O)[C@@H]1O` [KANAMYCIN], the Ratio in assay [1] was 16.

On to `CC[C@H]1OC(=O)[C@H](C)[C@@H](O[C@H]2C[C@@](C)(OC)[C@@H](O)[C@H](C)O2)[C@H](C)[C@@H](O[C@@H]2O[C@H](C)C[C@H](N(C)C)[C@H]2O)[C@](C)(O)C[C@@H](C)C(=O)[C@H](C)[C@@H](O)[C@]1(C)O` [ERYTHROMYCIN], for which the minimum inhibitory concentration (MIC) was above 256 µg/mL in assay [2] and 4 µg/mL (≈ 5.45 µM) in assay [3].

Consider `CN(C)[C@@H]1C(O)=C(C(N)=O)C(=O)[C@@]2(O)C(O)=C3C(=O)c4c(O)cccc4[C@@](C)(O)[C@H]3C[C@@H]12` [TETRACYCLINE], for which the MIC in assay [2] worked out at 16 µg/mL (≈ 36 µM); in assay [3] it was 8 µg/mL (≈ 18 µM).

With `CN[C@@H]1[C@H](O[C@H]2[C@H](O[C@H]3[C@H](O)[C@@H](O)[C@H](N=C(N)N)[C@@H](O)[C@@H]3N=C(N)N)O[C@@H](C)[C@]2(O)C=O)O[C@@H](CO)[C@H](O)[C@H]1O` [STREPTOMYCIN], in assay [1], the Ratio turned out to be 8.
